Entries after “also recorded” stand apart in the source; their conditions may differ. Read-outs that look alike come from different tables or passages of the source. Marks after values point to notes of the source that are not given here.
Columns and labels:
[1] = system: parental CHO cell line without any transfected receptors; test: ERK1/2‐phosphorylation, parent CHO cells without transfected receptors; type: cell-based, Chinese hamster; settings: for Emax: read-out: ERK1/2-phosphorylation % PDBu
[2] = system: parental CHO cell line without any transfected receptors; test: Intracellular calcium mobilization, parent CHO cells without transfected receptors; type: cell-based, Chinese hamster
[3] = system: parental CHO cell line without any transfected receptors; test: Forskolin‐stimulated cAMP accumulation, parent CHO cells without transfected receptors; type: cell-based, Chinese hamster
[4] = system: parental CHO cell line without any transfected receptors; test: ^3H‐cAMP accumulation, parent CHO cells without transfected receptors; type: cell-based, Chinese hamster
human α1A‐adrenoceptor [5] = biological target: T1, human α1A‐adrenoceptor (Homo sapiens, UniProt P35348); test: ^3H‐prazosin whole‐cell radioligand binding, CHO‐α1A cells
T1 construct: expressed in transfected cells; host or cells: CHO-K1
T1 sequence (P35348 1-466): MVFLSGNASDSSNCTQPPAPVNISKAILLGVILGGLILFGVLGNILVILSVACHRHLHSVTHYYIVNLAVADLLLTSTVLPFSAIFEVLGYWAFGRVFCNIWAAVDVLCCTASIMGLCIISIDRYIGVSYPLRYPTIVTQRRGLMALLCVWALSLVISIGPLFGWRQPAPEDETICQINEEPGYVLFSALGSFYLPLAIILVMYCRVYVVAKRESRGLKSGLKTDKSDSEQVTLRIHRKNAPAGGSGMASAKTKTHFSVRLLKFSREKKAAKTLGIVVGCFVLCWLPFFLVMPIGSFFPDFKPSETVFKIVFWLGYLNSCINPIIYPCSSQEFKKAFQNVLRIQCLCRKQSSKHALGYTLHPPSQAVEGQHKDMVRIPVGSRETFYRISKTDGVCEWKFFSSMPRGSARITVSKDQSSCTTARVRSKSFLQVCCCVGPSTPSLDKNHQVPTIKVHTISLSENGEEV

human α1B‐adrenoceptor [6] = biological target: T2, human α1B‐adrenoceptor (Homo sapiens, UniProt P35368); test: ^3H‐cAMP accumulation, CHO‐α1B cells; type: cell-based; settings: CHO‐α1B cells
T2 construct: expressed in transfected cells; host or cells: CHO-K1
T2 sequence (P35368 1-520): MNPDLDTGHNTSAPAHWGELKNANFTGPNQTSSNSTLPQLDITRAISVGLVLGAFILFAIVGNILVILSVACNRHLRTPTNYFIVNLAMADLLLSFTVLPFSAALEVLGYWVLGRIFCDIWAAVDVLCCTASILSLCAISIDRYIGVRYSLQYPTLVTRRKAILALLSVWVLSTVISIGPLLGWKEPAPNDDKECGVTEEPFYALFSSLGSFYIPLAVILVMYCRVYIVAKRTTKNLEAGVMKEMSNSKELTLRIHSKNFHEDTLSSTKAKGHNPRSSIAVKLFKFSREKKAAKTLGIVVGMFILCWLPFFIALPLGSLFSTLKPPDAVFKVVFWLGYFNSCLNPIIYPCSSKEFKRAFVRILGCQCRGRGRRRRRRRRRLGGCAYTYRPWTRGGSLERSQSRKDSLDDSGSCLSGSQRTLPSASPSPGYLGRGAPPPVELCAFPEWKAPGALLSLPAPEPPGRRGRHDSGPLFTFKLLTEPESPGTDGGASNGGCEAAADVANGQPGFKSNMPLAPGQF

human α1A‐adrenoceptor [7] = biological target: T1, human α1A‐adrenoceptor; test: ^3H‐cAMP accumulation in the presence of 10 μM forskolin, CHO‐α1A cells; type: cell-based
human α1B‐adrenoceptor [8] = biological target: T2, human α1B‐adrenoceptor; test: ^3H‐prazosin whole‐cell radioligand binding, CHO‐α1B cells
[9] = biological target: T3, human α1D‐adrenoceptor (full length) (Homo sapiens, UniProt P25100); test: ^3H‐prazosin whole‐cell radioligand binding, CHO‐α1D cells
T3 construct: human α1D‐adrenoceptor (full length) were used; expressed in transfected cells; host or cells: CHO-K1
T3 sequence (P25100 1-572): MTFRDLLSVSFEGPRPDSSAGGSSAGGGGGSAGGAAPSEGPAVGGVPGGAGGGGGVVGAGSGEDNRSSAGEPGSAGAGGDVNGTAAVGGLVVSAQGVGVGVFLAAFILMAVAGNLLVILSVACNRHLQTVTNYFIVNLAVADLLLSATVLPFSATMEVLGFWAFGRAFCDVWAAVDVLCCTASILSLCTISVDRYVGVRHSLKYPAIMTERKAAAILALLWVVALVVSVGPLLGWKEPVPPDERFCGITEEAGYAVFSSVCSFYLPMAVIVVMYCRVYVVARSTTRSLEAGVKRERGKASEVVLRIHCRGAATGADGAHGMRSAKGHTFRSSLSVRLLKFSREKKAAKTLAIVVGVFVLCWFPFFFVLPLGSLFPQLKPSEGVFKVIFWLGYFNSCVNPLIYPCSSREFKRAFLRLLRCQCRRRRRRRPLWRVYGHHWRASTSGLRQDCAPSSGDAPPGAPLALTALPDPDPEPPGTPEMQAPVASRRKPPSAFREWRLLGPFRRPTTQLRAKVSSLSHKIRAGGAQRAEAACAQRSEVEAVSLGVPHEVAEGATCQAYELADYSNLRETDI

human α1A‐adrenoceptor [10] = biological target: T1, human α1A‐adrenoceptor; test: ERK1/2‐phosphorylation (Surefire Alphascreen), CHO‐α1A cells; type: cell-based
[11] = biological target: T3, human α1D‐adrenoceptor (full length); test: ^3H‐cAMP accumulation, CHO‐α1D cells; type: cell-based; settings: cAMP accumulation without forskolin
human α1A‐adrenoceptor [12] = biological target: T1, human α1A‐adrenoceptor; test: Intracellular free calcium mobilization, CHO‐α1A cells; type: cell-based
human α1B‐adrenoceptor [13] = biological target: T2, human α1B‐adrenoceptor; test: ERK1/2‐phosphorylation (Surefire Alphascreen), CHO‐α1B cells; type: cell-based
human α1A‐adrenoceptor [14] = biological target: T1, human α1A‐adrenoceptor; test: ^3H‐cAMP accumulation, CHO‐α1A cells; type: cell-based
[15] = biological target: T3, human α1D‐adrenoceptor (full length); test: ERK1/2‐phosphorylation (Surefire Alphascreen), CHO‐α1D cells; type: cell-based
human α1B‐adrenoceptor [16] = biological target: T2, human α1B‐adrenoceptor; test: Intracellular free calcium mobilization, CHO‐α1B cells; type: cell-based
[17] = biological target: T3, human α1D‐adrenoceptor (full length); test: ^3H‐cAMP accumulation in the presence of 10 μM forskolin, CHO‐α1D cells; type: cell-based
human α1B‐adrenoceptor [18] = biological target: T2, human α1B‐adrenoceptor; test: ^3H‐cAMP accumulation in the presence of 10 μM forskolin, CHO‐α1B cells; type: cell-based
[19] = biological target: T3, human α1D‐adrenoceptor (full length); test: Intracellular free calcium mobilization, CHO‐α1D cells; type: cell-based

Structure (SMILES): CC(N)C(O)c1ccc(O)c(O)c1 (stereo not drawn) [α-methylnorepinephrine]
- ERK1/2-phosphorylation % PDBu [1]: No response
- ERK1/2-phosphorylation Log EC50 [1]: No response
- Intracellular calcium release % ionomycin [2]: No response
- cAMP accumulation (in presence of forskolin) % forskolin-stim cAMP [3]: No response
- cAMP accumulation (in presence of forskolin) Log EC50 [3]: No response
- cAMP accumulation % forskolin [4]: No response

Structure (SMILES): CCN(CC)C(=O)N[C@H]1C=C2c3cccc4[nH]cc(c34)C[C@H]2N(C)C1 [Lisuride]
- ERK1/2‐phosphorylation response in parent CHO cells [1]: stimulated ERK1/2‐phosphorylation responses
- Emax ([1]; Cricetulus griseus, CHO): 41 ± 6.4%
- Intracellular calcium release % ionomycin [2]: No response
- cAMP accumulation (in presence of forskolin) % forskolin-stim cAMP at 10μM [3]: 85.2 ± 5.0%
- cAMP accumulation % forskolin [4]: No response

Structure (SMILES): Cc1cc(C(C)(C)C)cc(C)c1CC1=NCCN1 [Xylometazoline]
- Affinity selectivity ratio α1A vs α1B (human α1A‐adrenoceptor [5]): 60.3 fold
- Affinity selectivity ratio α1A vs α1D (human α1A‐adrenoceptor [5]): 51.3 fold
- Kd (human α1A‐adrenoceptor [5]): 0.115 µM
- cAMP accumulation Log EC50 (human α1B‐adrenoceptor [6]): No response
- cAMP accumulation % forskolin (human α1B‐adrenoceptor [6]; % forskolin maximum response): No response
- EC50 (human α1A‐adrenoceptor [7]): 0.0302 µM
- cAMP accumulation (in presence of forskolin) Fold increase (human α1A‐adrenoceptor [7]; CHO‐α1A cells, fold increase of the forskolin response): 2.00 ± 0.09 fold
- Kd (human α1B‐adrenoceptor [8]): 6.92 µM
- Kd (human α1B‐adrenoceptor [8]; Log KD, ^3H‐prazosin binding): 6.92 µM
- Affinity selectivity ratio α1B vs α1D [9]: 1.2 fold
- Kd [9]: 5.89 µM
- Kd ([9]; 3H‐prazosin binding Log KD): 5.89 µM
- Emax ([1]; Cricetulus griseus, CHO cells without transfected receptors, maximal response as % of PDBu (10μM) response, mean ± s.e.m.): 56.2 ± 5.9%
- EC50 ([1]; Cricetulus griseus, CHO cells without transfected receptors, mean ± s.e.m., read-out: ERK1/2-phosphorylation Log EC50 (converted)): 0.0891 µM
- ERK1/2‐phosphorylation response in parent CHO cells ([1]; untransfected cells): stimulated ERK1/2‐phosphorylation responses
- EC50 (human α1A‐adrenoceptor [10]): 0.0038 µM
- ERK1/2‐phosphorylation % PDBu (human α1A‐adrenoceptor [10]): 98.8 ± 5.1%
- ERK1/2‐phosphorylation potency in CHO‐α1A cells relative to untransfected parent CHO cells (human α1A‐adrenoceptor [10]): > 10 fold
- Emax ([2]; Cricetulus griseus, CHO cells without transfected receptors, response at maximum concentration used (c2), as % of ionomycin (10μM) response, mean ± s.e.m., read-out: Intracellular calcium release % ionomycin): 15.8 ± 2.7%
- cAMP Log EC50 [11]: No response
- EC50 (human α1A‐adrenoceptor [12]): 0.00251 µM
- Intracellular calcium release % ionomycin (human α1A‐adrenoceptor [12]): 64.4 ± 2.7%
- Log efficacy ratio KD /EC50 (human α1A‐adrenoceptor [12]): 1.66
- ERK1/2‐phosphorylation % PDBu (human α1B‐adrenoceptor [13]): 66.2 ± 6.0%
- EC50 (human α1A‐adrenoceptor [14]): 0.126 µM
- cAMP accumulation % forskolin (human α1A‐adrenoceptor [14]; CHO‐α1A cells, % of 10 µM forskolin response): 32.4 ± 5.7%
- ERK1/2‐phosphorylation % PDBu [15]: 70.8 ± 7.8%
- Intracellular calcium release % Ionomycin at 100 µM (human α1B‐adrenoceptor [16]): 13.6 ± 3.3%
- IC50 [17]: 0.0295 µM
- % inhibition of forskolin‐stimulated cAMP ([17]; CHO‐α1D cells, decrease in forskolin‐stimulated cAMP accumulation (footnote b)): *26.5 ± 1.1%
- Effect on cAMP accumulation in the presence of forskolin, CHO‐α1D cells ([17]; not α1‐mediated): decrease in cAMP accumulation; also recorded: inhibitory cAMP response
- % inhibition of forskolin-stimulated cAMP ([3]; CHO cells without transfected receptors, footnote *: % inhibition): 21.0 ± 2.4%*
- IC50 ([3]; Cricetulus griseus, CHO cells without transfected receptors, footnote *: log IC50, read-out: log IC50, decrease in forskolin-stimulated cAMP accumulation (converted)): 0.0661 µM
- Effect on cAMP accumulation in the presence of forskolin, parent cells ([3]; untransfected cells): decrease in cAMP accumulation
- IC50 (human α1B‐adrenoceptor [18]): 0.00912 µM
- % inhibition of forskolin‐stimulated cAMP (human α1B‐adrenoceptor [18]; CHO‐α1B cells, footnote c): 13.5 ± 1.8%a
- Effect on cAMP accumulation in the presence of forskolin, CHO‐α1B cells (human α1B‐adrenoceptor [18]; not α1‐mediated): decrease in cAMP accumulation
- Intracellular calcium release % Ionomycin at 100 µM [19]: 18.6 ± 2.0%

From paper PMC8343220, “The selectivity of α‐adrenoceptor agonists for the human α1A, α1B, and α1D‐adrenoceptors” (Pharmacology Research & Perspectives, 2021)
